“Also recorded” adds a separate entry of the source.
How the values were obtained:
patients = settings: insulin infusion, glucose levels kept constant in patients; cited from earlier work
diabetic rats [1] = test: Serum glucose and body weight in the same experiment at 10 weeks; format: in vivo, rat; settings: 0.3 U insulin per kg per day intracerebroventricular
Procedure: (§1) Adult rats were randomly assigned to treatment groups, some of which were treated with streptozotocin to induce diabetes. Alzet osmotic minipumps (pump rate, 0.5 μl per hour) were connected to catheters that delivered either artificial cerebrospinal fluid (D+aCSF) or 0.3 U insulin per kg body weight per day (D+Insulin) into the brain lateral ventricles of diabetic rats for 10 weeks. Pumps were replaced every two weeks. Brains were removed and the wet weight determined. The brains were homogenized in a buffer, and aliquots were taken to determine dry weight. The water weight was calculated as the difference between brain wet and dry weights. The results are shown in FIGS. 1A-1C, wherein the values are means±SEM (N=7 rats per group). Newman-Keuls posthoc test of means was calculated using CSS Statistica software package.
In the same experiment described in FIGS. 1A-1C, rats were weighed and tail blood was withdrawn for glucose assay prior to euthanasia at 10 weeks. Values are means±SEM. Newman-Keuls posthoc test of means was calculated using CSS Statistica software package.

diabetic rats [2] = test: Brain atrophy in streptozotocin-diabetic rats, insulin infused into brain lateral ventricles; format: in vivo, rat; settings: 0.3 U insulin per kg body weight per day into brain lateral ventricles for 10 weeks; D+Insulin vs D+aCSF P<0.02; N=7 rats per group
Procedure: as §1

## insulin
patients
  number of different genes whose expression is regulated in a muscle biopsy: over 700
Diabetic rats [1]; D+Insulin vs D+aCSF P<0.02
  loss of body weight: partially prevented loss of body weights
Diabetic rats [1]; D+Insulin vs D+aCSF nonsignificant
  hyperglycemia (serum glucose levels): no effect on hyperglycemia
Diabetic rats [2]
  brain atrophy, loss of brain wet and dry weights: prevented brain atrophy; also recorded: completely normalized brain weight

Source: patent US20120195959A1, “METHOD FOR TREATING DISEASE OR DISORDER OF ADULT CENTRAL NERVOUS SYSTEM ASSOCIATED WITH TISSUE SHRINKAGE OR ATROPHY BY ADMINISTRATION OF INSULIN” (priority 2005, published 2012)
